Test results reported in ChEMBL document CHEMBL4266060, “Structure-Property Relationship Studies of Influenza A Virus AM2-S31N Proton Channel Blockers” (ACS Med Chem Lett, 2018).

Experiments:
Influenza A virus [1] = assay: microbe, parasite or virus in culture; conditions: MDCK
Influenza A virus [2] = assay: microbe, parasite or virus in culture; conditions: MDCK; remark: listed apart in the source
Influenza A virus [3] = assay: microbe, parasite or virus in culture; conditions: MDCK; remark: listed apart in the source
Influenza A virus [4] = assay: microbe, parasite or virus in culture; conditions: MDCK; remark: listed apart in the source
Influenza A virus [5] = assay: microbe, parasite or virus in culture; conditions: A/North Carolina/29/2009(H1N1), MDCK
Influenza A virus [6] = conditions: mdck

SMILES	EC50 (Influenza A virus [1]) [nM]	EC50 (Influenza A virus [2]) [nM]	EC50 (Influenza A virus [3]) [nM]	EC50 (Influenza A virus [4]) [nM]	EC50 (Influenza A virus [5]) [nM]	EC50 (Influenza A virus [6]) [nM]
OC12CC3CC(C1)CC(NCc1ccc(Br)s1)(C3)C2	700	2000	600	1400	2800	
OC12CC3CC(C1)CC(NCc1ccc(I)s1)(C3)C2	400	700	600	800		1100
CCC(CC)O[C@@H]1C=C(C(=O)O)C[C@H](N)[C@H]1NC(C)=O [OSELTAMIVIR CARBOXYLATE]	> 200	> 200	> 200	2.5	> 200	
